Laboratory results from patent US20250122221A1 (NANJING ZAIMING PHARMACEUTICAL CO., LTD., priority 2022, published 2025).

target: N-terminal active peptide segment (MI-N899) of POLQ with ATPase activity (Homo sapiens (Human), UniProt O75417); experiment: POLQ enzyme activity inhibition experiment (ATPase, NADH-coupled, OD 340 nm); assay type: biochemical; conditions: 100 nM POLQ (N), 100 μM ATP, 300 nM dT50
Description: The Envision microplate reader from Perkin Elmer Inc was used to measure the reduction of OD value of NADH at 340 nm, thus reflecting the enzyme activity. Experimental method: The POLQ enzyme was diluted to 100 nM with a reaction buffer (20 mM Tris HCl (pH 7.80), 80 mM KCl, 10 mM MgCl2, 1 mM DTT, 0.01% w/v bovine serum albumin, 0.01% v/v Tween-20, and 5% v/v glycerol). The compounds to be tested were diluted to different concentrations in dimethyl sulfoxide (DMSO) using the Echo 650 pipetting system, and transferred to a 384-well plate, 20 μL/well of 100 nM POLQ was added, and the mixture was incubated at room temperature for 15 minutes. A reaction mixture solution was formulated, and the concentration of each component in the reaction mixture solution was: 100 μM ATP, 300 nM […], 300 μM NADH, 6 mM PEP, 10 U/mL lactate dehydrogenase and 20 U/mL pyruvate kinase. 20 μL/well of reaction mixture solution was added to start the enzyme reaction. […] The concentration range was from 10 μM to 0.0005 μM, and the final concentration of DMSO in the system was 0.2% v/v. The 384-well plate was reacted at room temperature for 20 minutes, and then the OD value at 340 nm was read with an Envision microplate reader. The inhibition rate was calculated, and XLfit software was used to perform fitting to obtain IC50 of the compounds. In the experiment, a blank group and a DMSO group were set up, respectively.

N-terminal active peptide segment (MI-N899) of POLQ with ATPase activity, sequence (O75417 1-899 limits assumed): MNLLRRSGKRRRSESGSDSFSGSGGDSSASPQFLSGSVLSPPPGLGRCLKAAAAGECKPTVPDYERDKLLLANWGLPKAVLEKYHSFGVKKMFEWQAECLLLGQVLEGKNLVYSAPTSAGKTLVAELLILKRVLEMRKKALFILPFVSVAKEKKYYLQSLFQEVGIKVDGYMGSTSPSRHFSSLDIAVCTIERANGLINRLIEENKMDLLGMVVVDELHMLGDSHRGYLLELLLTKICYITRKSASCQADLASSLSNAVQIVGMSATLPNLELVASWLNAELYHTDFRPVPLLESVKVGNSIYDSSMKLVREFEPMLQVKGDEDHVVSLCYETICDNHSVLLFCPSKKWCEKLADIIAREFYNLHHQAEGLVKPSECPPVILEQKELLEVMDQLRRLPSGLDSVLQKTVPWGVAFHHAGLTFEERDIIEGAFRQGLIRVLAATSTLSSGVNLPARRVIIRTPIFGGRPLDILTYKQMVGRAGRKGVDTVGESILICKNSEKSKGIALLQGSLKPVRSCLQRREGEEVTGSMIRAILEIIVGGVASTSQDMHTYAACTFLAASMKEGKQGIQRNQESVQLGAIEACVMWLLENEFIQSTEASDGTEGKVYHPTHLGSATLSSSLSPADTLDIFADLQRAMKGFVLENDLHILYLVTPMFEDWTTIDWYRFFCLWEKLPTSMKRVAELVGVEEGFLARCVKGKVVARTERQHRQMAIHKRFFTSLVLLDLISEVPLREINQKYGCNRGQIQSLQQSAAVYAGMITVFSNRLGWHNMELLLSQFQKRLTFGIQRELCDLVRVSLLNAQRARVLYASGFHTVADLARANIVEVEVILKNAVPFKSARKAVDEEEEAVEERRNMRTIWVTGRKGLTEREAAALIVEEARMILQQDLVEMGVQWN

`COc1ccccc1-c1cncnc1C(=O)Nc1nc2ncc(-c3ccc(C#N)cc3)nc2s1` [Compound 52, N-(6-(4-cyanophenyl)thiazolo[4,5-b]pyrazin-2-yl)-5-(2-methoxyphenyl)pyrimidine-4-carboxamide] and `COc1ccccc1-c1cc(C)ncc1C(=O)Nc1nc2ncc(-c3ccc(C#N)cc3)nc2s1` [Compound 31, N-(6-(4-cyanophenyl)thiazolo[4,5-b]pyrazin-2-yl)-4-(2-methoxyphenyl)-6-methylpyridine-3-carboxamide] cannot be ordered by IC50: < 100 nM for the first, < 100 nM for the second.

First: COc1ccccc1-c1cnc(C(F)(F)F)cc1C(=O)Nc1nc2ncc(-c3ccc(C#N)cc3)nc2s1 [Compound 53, N-(6-(4-cyanophenyl)thiazolo[4,5-b]pyrazin-2-yl)-5-(2-methoxyphenyl)-2-(trifluoromethyl)pyridine-4-carboxamide]
Second: COc1ccccc1-c1cc(C(F)(F)F)ncc1C(=O)Nc1nc2ncc(-c3ccc(C#N)cc3)nc2s1 [Compound 36, N-(6-(4-cyanophenyl)thiazolo[4,5-b]pyrazin-2-yl)-4-(2-methoxyphenyl)-6-(trifluoromethyl)pyridine-3-carboxamide]
The IC50 of the first is higher: 100 to 500 nM for the first, < 100 nM for the second.

`COc1ccccc1-c1cnccc1C(=O)Nc1nc2ncc(-c3ccc(C#N)c(F)c3)nc2s1` [Compound 12, N-(6-(4-cyano-3-fluorophenyl)thiazolo[4,5-b]pyrazin-2-yl)-3-(2-methoxyphenyl)isonicotinamide] and `COc1cc(-c2cnc3nc(NC(=O)c4ccncc4-c4ccccc4OC)sc3n2)ccc1C#N` [Compound 14, N-(6-(4-cyano-3-methoxyphenyl)thiazolo[4,5-b]pyrazin-2-yl)-3-(2-methoxyphenyl)isonicotinamide] cannot be ordered by IC50: < 100 nM for the first, < 100 nM for the second.

`COc1ccccc1-c1ncccc1C(=O)Nc1nc2ncc(-c3ccc(C#N)cc3)nc2s1` [Compound 50, N-(6-(4-cyanophenyl)thiazolo[4,5-b]pyrazin-2-yl)-2-(2-methoxyphenyl)pyridine-3-carboxamide] and `COc1ccccc1-c1ccccc1C(=O)Nc1nc2ncc(-c3ccc(C#N)cc3)nc2s1` [Compound 55, N-(6-(4-cyanophenyl)thiazolo[4,5-b]pyrazin-2-yl)-2′-methoxy-[1,1′-biphenyl]-2-carboxamide] cannot be ordered by IC50: < 100 nM for the first, < 100 nM for the second.

`COc1cccc(F)c1-c1cc(C#N)ncc1C(=O)Nc1nc2ncc(-c3ccc(Cl)cc3)nc2s1` [Compound 17, N-(6-(4-chlorophenyl)thiazolo[4,5-b]pyrazin-2-yl)-6-cyano-4-(2-fluoro-6-methoxyphenyl)nicotinamide] and `COc1ccccc1-c1cc(C#N)ncc1C(=O)Nc1nc2ncc(-c3ccc(Cl)cc3)nc2s1` [Compound 28, N-(6-(4-chlorophenyl)thiazolo[4,5-b]pyrazin-2-yl)-6-cyano-4-(2-methoxyphenyl)pyridine-3-carboxamide] cannot be ordered by IC50: < 100 nM for the first, < 100 nM for the second.

`COc1cc(C#N)ccc1-c1cnccc1C(=O)Nc1nc2ncc(-c3ccc(C#N)cc3)nc2s1` [Compound 40, 3-(4-cyano-2-methoxyphenyl)-N-(6-(4-cyanophenyl)thiazolo[4,5-b]pyrazin-2-yl)pyridine-4-carboxamide] and `COc1cnccc1-c1cc(C)ncc1C(=O)Nc1nc2ncc(-c3ccc(C#N)cc3)nc2s1` [Compound 45, N-(6-(4-cyanophenyl)thiazolo[4,5-b]pyrazin-2-yl)-3′-methoxy-6-methyl-[4,4′-bipyridine]-3-carboxamide] cannot be ordered by IC50: < 100 nM for the first, < 100 nM for the second.

`COc1ccccc1-c1cc(C#N)ncc1C(=O)Nc1nc2ncc(-c3ccc(=O)n(C)c3)nc2s1` [Compound 19, 6-cyano-4-(2-methoxyphenyl)-N-(6-(1-methyl-6-oxo-1,6-dihydropyridin-3-yl)thiazolo[4,5-b]pyrazin-2-yl)nicotinamide] and `C#Cc1ccccc1-c1cc(C#N)ncc1C(=O)Nc1nc2ncc(-c3ccc(Cl)cc3)nc2s1` [Compound 38, N-(6-(4-chlorophenyl)thiazolo[4,5-b]pyrazin-2-yl)-6-cyano-4-(2-ethynylphenyl)pyridine-3-carboxamide] cannot be ordered by IC50: < 100 nM for the first, < 100 nM for the second.

`COc1ccccc1-c1cnccc1C(=O)Nc1nc2cnc(-c3ccc(Cl)cc3)nc2s1` [Compound 8, N-(5-(4-chlorophenyl)thiazolo[5,4-d]pyrimidin-2-yl)-3-(2-methoxyphenyl)pyridine-4-carboxamide] and `COc1ccccc1-c1cnccc1C(=O)Nc1nc2ncc(-c3ccc(Cl)cc3)cc2s1` [Compound 10, N-(6-(4-chlorophenyl)thiazolo[4,5-b]pyridin-2-yl)-3-(2-methoxyphenyl)isonicotinamide] cannot be ordered by IC50: < 100 nM for the first, < 100 nM for the second.

`COc1ccccc1-c1cnccc1C(=O)Nc1nc2ncc(-c3cccc(Cl)c3)nc2s1` [Compound 5, N-(6-(3-chlorophenyl)thiazolo[4,5-b]pyrazin-2-yl)-3-(2-methoxyphenyl)pyridine-4-carboxamide] and `COc1ccc(-c2cnc3nc(NC(=O)c4ccncc4-c4ccccc4OC)sc3n2)cc1` [Compound 7, 3-(2-methoxyphenyl)-N-(6-(4-methoxyphenyl)thiazolo[4,5-b]pyrazin-2-yl)pyridine-4-carboxamide] cannot be ordered by IC50: < 100 nM for the first, < 100 nM for the second.

`C#Cc1ccccc1-c1cnccc1C(=O)Nc1nc2ncc(-c3ccc(Cl)cc3)nc2s1` [Compound 29, N-(6-(4-chlorophenyl)thiazolo[4,5-b]pyrazin-2-yl)-3-(2-ethynylphenyl)pyridine-4-carboxamide] and `N#Cc1ccc(C(=O)Nc2nc3ncc(-c4ccc(Cl)cc4)nc3s2)c(-c2ccccc2C#N)c1` [Compound 37, N-(6-(4-chlorophenyl)thiazolo[4,5-b]pyrazin-2-yl)-2′,5-dicyano-[1,1′-biphenyl]-2-carboxamide] cannot be ordered by IC50: < 100 nM for the first, < 100 nM for the second.

`COc1ccccc1-c1cn2ccnc2cc1C(=O)Nc1nc2ncc(-c3ccc(C#N)cc3)nc2s1` [Compound 41, N-(6-(4-cyanophenyl)thiazolo[4,5-b]pyrazin-2-yl)-6-(2-methoxyphenyl)imidazo[1,2-a]pyridine-7-carboxamide] and `COc1ncccc1-c1cc(C)ncc1C(=O)Nc1nc2ncc(-c3ccc(C#N)cc3)nc2s1` [Compound 44, N-(6-(4-cyanophenyl)thiazolo[4,5-b]pyrazin-2-yl)-2-methoxy-6′-methyl-[3,4′-bipyridine]-3′-carboxamide] cannot be ordered by IC50: < 100 nM for the first, < 100 nM for the second.

`C#Cc1cc(F)ccc1-c1cc(C)ncc1C(=O)Nc1nc2ncc(-c3ccc(C#N)cc3)nc2s1` [Compound 47, N-(6-(4-cyanophenyl)thiazolo[4,5-b]pyrazin-2-yl)-4-(2-ethynyl-4-fluorophenyl)-6-methylpyridine-3-carboxamide] and `C#Cc1cccc(F)c1-c1cc(C)ncc1C(=O)Nc1nc2ncc(-c3ccc(C#N)cc3)nc2s1` [Compound 49, N-(6-(4-cyanophenyl)thiazolo[4,5-b]pyrazin-2-yl)-4-(2-ethynyl-6-fluorophenyl)-6-methylpyridine-3-carboxamide] cannot be ordered by IC50: < 100 nM for the first, < 100 nM for the second.

`COc1cnc(C)cc1-c1cc(C)ncc1C(=O)Nc1nc2ncc(C3CCOC3)nc2s1` (stereo not shown) [Compound 69-P1, N-(6-(tetrahydrofuran-3-yl)thiazolo[4,5-b]pyrazin-2-yl)-5′-methoxy-2′,6-dimethyl-[4,4′-bipyridine]-3-carboxamide] and `COc1cnc(C)cc1-c1cc(C)ncc1C(=O)Nc1nc2ncc(-c3ccc(Cl)cn3)nc2s1` [Compound 66, N-(6-(5-chloropyridin-2-yl)thiazolo[4,5-b]pyrazin-2-yl)-5′-methoxy-2′,6-dimethyl-[4,4′-bipyridine]-3-carboxamide] cannot be ordered by IC50: < 100 nM for the first, < 100 nM for the second.

`COc1cnc(C)cc1-c1cc(C)ncc1C(=O)Nc1nc2ncc(-c3ccc(C#N)cc3F)nc2s1` [Compound 70, N-(6-(4-cyano-2-fluorophenyl)thiazolo[4,5-b]pyrazin-2-yl)-5′-methoxy-2′,6-dimethyl-[4,4′-bipyridine]-3-carboxamide] and `COc1cnc(C#N)cc1-c1cc(C)ncc1C(=O)Nc1nc2ncc(-c3ccc(Cl)cn3)nc2s1` [Compound 65, N-(6-(5-chloropyridin-2-yl)thiazolo[4,5-b]pyrazin-2-yl)-2′-cyano-5′-methoxy-6-methyl-[4,4′-bipyridine]-3-carboxamide] cannot be ordered by IC50: < 100 nM for the first, < 100 nM for the second.

`Cc1cc(-c2cc(Cl)ccc2C(F)(F)F)c(C(=O)Nc2nc3ncc(-c4ccc(C#N)cc4)nc3s2)cn1` [Compound 88, 4-(5-chloro-2-(trifluoromethyl)phenyl)-N-(6-(4-cyanophenyl)thiazolo[4,5-b]pyrazin-2-yl)-6-methylpyridine-3-carboxamide] and `Cc1cc(-c2cc(Cl)ccc2OC(F)(F)F)c(C(=O)Nc2nc3ncc(-c4ccc(C#N)cc4)nc3s2)cn1` [Compound 90, 4-(5-chloro-2-(trifluoromethoxy)phenyl)-N-(6-(4-cyanophenyl)thiazolo[4,5-b]pyrazin-2-yl)-6-methylpyridine-3-carboxamide] cannot be ordered by IC50: < 100 nM for the first, < 100 nM for the second.

With `C#Cc1ccccc1-c1cc(C)ncc1C(=O)Nc1nc2ncc(-c3ccc(C#N)cc3)cc2s1` [Compound 60, N-(6-(4-cyanophenyl)thiazolo[4,5-b]pyridin-2-yl)-4-(2-ethynylphenyl)-6-methylpyridine-3-carboxamide] the IC50 was < 100 nM.
